In patent publication US11582970B2, “2-aminoimidazole-phenyl derivatives useful for controlling microbial growth” (NORTH CAROLINA STATE UNIVERSITY, priority 2017, dated 2023):

Columns and labels:
Assay type in all cases: cell-based
A. baumannii AB5075 = test: MIC of carbapenems in presence and absence of 2-aminoimidazole compounds; details: Acinetobacter baumannii, no 2-AI compound (None), read-out: MIC of meropenem
Description: (§1) The minimal inhibitory concentration (MIC) values of imipenem (I); meropenem (M) and doripenem (D) in the presence and absence of 2-aminoimidazole compounds are provided in Table 1. The concentration of each compound used in μM in the MIC assay is shown in parentheses.

[1] = test system: K. pneumoniae ATCC BAA-2146; test: as above; details: Klebsiella pneumoniae, no 2-AI compound (None), read-out: MIC of meropenem
Description: as §1

[2] = test system: K. pneumoniae ATCC BAA-1705; test: as above; details: Klebsiella pneumoniae, no 2-AI compound (None), read-out: MIC of meropenem
Description: as §1

[3] = test system: A. baumannii ATCC BAA-1605; test: as above; details: Acinetobacter baumannii, no 2-AI compound (None), read-out: MIC of meropenem
Description: as §1

A. baumannii (Ab) AR# 36 = test: MIC of meropenem in combination with compound, CDC carbapenem resistant strain; details: Acinetobacter baumannii, no compound (None), read-out: Minimum Inhibitory Concentration of Meropenem
Method: (§2) EXAMPLE 2: Six compounds were assessed for their activity in combination with meropenem against carbapenem resistant strains of A. baumannii (Ab), K. pneumoniae (Kp), and E. coli acquired from the Center for Disease Control (CDC). AR #—assigned AR-BANK number from the CDC.

A. baumannii (Ab) AR# 70 = test: as above; details: Acinetobacter baumannii, no compound (None), read-out: Minimum Inhibitory Concentration of Meropenem
Method: as §2

A. baumannii (Ab) AR# 33 = test: as above; details: Acinetobacter baumannii, no compound (None), read-out: Minimum Inhibitory Concentration of Meropenem
Method: as §2

A. baumannii (Ab) AR# 52 = test: as above; details: Acinetobacter baumannii, no compound (None), read-out: Minimum Inhibitory Concentration of Meropenem
Method: as §2

A. baumannii (Ab) AR# 63 = test: as above; details: Acinetobacter baumannii, no compound (None), read-out: Minimum Inhibitory Concentration of Meropenem
Method: as §2

A. baumannii (Ab) AR# 37 = test: as above; details: Acinetobacter baumannii, no compound (None), read-out: Minimum Inhibitory Concentration of Meropenem
Method: as §2

A. baumannii (Ab) AR# 56 = test: as above; details: Acinetobacter baumannii, no compound (None), read-out: Minimum Inhibitory Concentration of Meropenem
Method: as §2

A. baumannii (Ab) AR# 35 = test: as above; details: Acinetobacter baumannii, no compound (None), read-out: Minimum Inhibitory Concentration of Meropenem
Method: as §2

[4] = test system: K. pneumoniae (Kp) AR# 68; test: as above; details: Klebsiella pneumoniae, no compound (None), read-out: Minimum Inhibitory Concentration of Meropenem
Method: as §2

[5] = test system: K. pneumoniae (Kp) AR# 98; test: as above; details: Klebsiella pneumoniae, no compound (None), read-out: Minimum Inhibitory Concentration of Meropenem
Method: as §2

A. baumannii (Ab) AR# 88 = test: as above; details: Acinetobacter baumannii, no compound (None), read-out: Minimum Inhibitory Concentration of Meropenem
Method: as §2

E. coli AR# 48 = test: as above; details: Escherichia coli, no compound (None), read-out: Minimum Inhibitory Concentration of Meropenem
Method: as §2

A. baumannii (Ab) AR# 45 = test: as above; details: Acinetobacter baumannii, no compound (None), read-out: Minimum Inhibitory Concentration of Meropenem
Method: as §2

A. baumannii (Ab) AR# 83 = test: as above; details: Acinetobacter baumannii, no compound (None), read-out: Minimum Inhibitory Concentration of Meropenem
Method: as §2

[6] = test system: K. pneumoniae (Kp) AR# 41; test: as above; details: Klebsiella pneumoniae, no compound (None), read-out: Minimum Inhibitory Concentration of Meropenem
Method: as §2

[7] = test system: K. pneumoniae (Kp) AR# 40; test: as above; details: Klebsiella pneumoniae, no compound (None), read-out: Minimum Inhibitory Concentration of Meropenem
Method: as §2

E. coli AR# 55 = test: as above; details: Escherichia coli, no compound (None), read-out: Minimum Inhibitory Concentration of Meropenem
Method: as §2

Work on `C[C@@H](O)[C@H]1C(=O)N2C(C(=O)O)=C(S[C@@H]3CN[C@H](C(=O)N(C)C)C3)[C@H](C)[C@H]12` [M, meropenem, reference compound] yielded an MIC (A. baumannii AB5075) of 32 µg/mL, an MIC [1] of 256 µg/mL and an MIC [2] of 64 µg/mL. For the same compound, the MIC [3] was 32 µg/mL, the MIC (A. baumannii (Ab) AR# 36) was 128 µg/mL and the MIC (A. baumannii (Ab) AR# 70) was 8 µg/mL. The MIC (A. baumannii (Ab) AR# 33) was 128 µg/mL, the MIC (A. baumannii (Ab) AR# 52) was 8 µg/mL and the MIC (A. baumannii (Ab) AR# 63) was 128 µg/mL. For the same compound, the MIC (A. baumannii (Ab) AR# 37) was 256 µg/mL, the MIC (A. baumannii (Ab) AR# 56) was 32 µg/mL and the MIC (A. baumannii (Ab) AR# 35) was 128 µg/mL. For the same compound, the MIC [4] was 512 µg/mL, the MIC [5] was 128 µg/mL and the MIC (A. baumannii (Ab) AR# 88) was 512 µg/mL. It also gave an MIC (E. coli AR# 48) of 256 µg/mL, an MIC (A. baumannii (Ab) AR# 45) of 16 µg/mL and an MIC (A. baumannii (Ab) AR# 83) of 256 µg/mL. It also gave an MIC [6] of 64 µg/mL, an MIC [7] of 1020 µg/mL and an MIC (E. coli AR# 55) of 256 µg/mL.
